Data as given in patent publication US8853373B2, “Method and reagent for gene sequence analysis” (Hitachi, Ltd., priority 2009, dated 2014).

Key:
Format in all cases: biochemical
[1] = tested on: nucleotides G, C, and A (Sequence GA, Sequence CG, Sequence AG); assay: Exclusivity of the other nucleotides (G, C, and A), elongation luminescence; settings: CG, AG, luminescence normalized to dCTP, dGTP, dTTP as 1
Description: (§1) Incorporation into nucleic acid was evaluated as follows. First, one of the above sequences was used as a target. Next, the primer was made to complementarily bind to the target. Then, an elongation experiment was carried out using the respective nucleic acid substrates for that sample. The synthesized nucleic acid substrate requires an affinity (complementary characteristics) with nucleotide T, and exclusivity of the other nucleotides (G, C, and A). The affinity with nucleotide T was evaluated using the Sequence TG and the primer. The exclusivity of the other nucleotides (G, C, and A) was evaluated using the respective Sequence GA, Sequence CG, and Sequence AG, and the primer. In addition, Sequence 5T was used for the evaluation of an ability of continuous incorporation into nucleotide T.
(§2) A sequencing method using a stepwise chemical reaction is described below. First, 35 μL of ultrapure water, 5 μL of oligo DNA (10 μM) of analysis object (target), and 5 μL of a primer (20 μM) were mixed with 5 μL of a hybridization buffer (10 mM Tris-Acetate, 20 mM Mg-Acetate, pH 7.75) (a sample solution: the final volume was 50 μL). Then, the sample solution was heated at 94° C. for 20 seconds, and reacted at a Tm temperature of the primer for 2 minutes. After that, 0.5 μL, (target: […], primer: […]) of this sample solution, 20 of a luminescence reagent which is designated in Condition 2 of Table 1, and 0.2 μL of a polymerase enzyme (the final concentration: 0.05 U/4) were mixed to prepare a reaction reagent (the final volume was 20.7 μL). To this reaction reagent was added 0.4 μL of 100 μM nucleic acid substrate (the final concentration 2 μM). When nucleic acid elongation occurs, bioluminescence derived from pyrophosphate of the elongation reaction product can be observed. The reaction has a luminescence peak a few seconds after the reaction initiation. […] This luminescence peak value is virtually proportional to the amount of generated pyrophosphate. Measurement of the peak value enables a degree of nucleic acid elongation to be estimated.
Next, with regard to the respective synthetic substrates, the exclusivity of the other nucleotides (G, C, and A) was assessed using each of Sequence GA, Sequence CG, and Sequence AG and the primer. […] In addition, a background luminescence component of the respective substrates was compensated by taking its difference into account in a manner similar to that of the preceding figures.

Sequence S1 = assay: Sequence analysis by stepwise chemical reaction (pyrogram), ATP sulfurylase system, Condition 3; settings: Sequence S1 (maximum two consecutive nucleotides); final concentration 2 μM
Description: Next, by using the developed substrates, nucleotide sequences were analyzed. FIG. 15 is pyrograms showing the results of sequence analysis using synthetic nucleotide A3d as a substitute for dATP in a sequencing method using a stepwise chemical reaction. The analyzed oligo Sequence S1 and a primer […] are described below.
Of note is that the Sequence P2 represents a primer sequence. This primer can complementarily bind to the underlined portion of the above Sequence S1. In addition, reagent conditions used for the sequence analysis were designated in Condition 3 of Table 1.
At the bottom of each diagram, the injected nucleic acid substrate species (the injected nucleotide type) were designated. Among the species, the substrate represented by “A” is A3d in (1) and dATPαS in (2), respectively. Also, at the top, nucleotide types which were incorporated in this oligo were designated. Specifically, the nucleotide types represent a complementary strand sequence that is an upstream sequence of the portion (the underlined portion of the Sequence S1) which complementarily binds to the primer P2. […] In addition, the broken lines represent standard values which convert the amount of the resulting luminescence into the number of nucleotides. For example, with regard to the above “CC”, the amount of luminescence equivalent to two nucleotides was observed. […]

[2] = tested on: 5 consecutive nucleotides of T (Sequence 5T); assay: Ability of incorporation into consecutive nucleotides of T (Sequence 5T), three consecutive injections; settings: for Continuous incorporation into 5 consecutive T (luminescence derived from incomplete elongation): three injections
Description: as §1, §2
Next, by using Sequence 5T, the ability of incorporation of the respective synthetic substrates into consecutive nucleotides of T was evaluated by the following procedure. The reaction reagent was prepared by using Sequence 5T as a target oligo in the same manner as in the case of evaluation of elongation of one nucleotide as described before. In this case, a target oligo 111 and a primer 112 form a complementary strand binding as depicted in FIG. 11(1). Due to the above, when dATP is dispensed into this reaction reagent as a substrate, five molecules of the substrate are consecutively elongated per target molecule as a primer having the substrate at the 3′ end 113, thereby releasing five molecules of pyrophosphate. If the elongation for all the five nucleotides is not completed, a portion of the nucleotide T remains in a single-stranded state. Because of this, when substrate dATP is dispensed again, the portion is elongated only in the case where a portion of incomplete elongation remains. Therefore, the release of pyrophosphate can be detected as luminescence. […] In addition, substrate dCTP, which is complementary to nucleotide G 114, was subsequently dispensed twice to detect luminescence. […]

Row | Structure (SMILES) | Exclusivity of the other nucleotides (G, C, and A) [1] | Sequence analysis result as substitute for dATP (Sequence S1) | Rate of Incomplete Elongation after the First Injection (%) ([2]; 5 consecutive nucleotides, final concentration 4 μM, E1 = luminescence of 2nd and 3rd injections / total of 1st to 3rd) | Rate of Incomplete Elongation after the Second Injection (%) ([2]; 5 consecutive nucleotides, final concentration 4 μM, E2 = luminescence of 3rd injection / total of 1st to 3rd) | Continuous incorporation into 5 consecutive T (luminescence derived from incomplete elongation) ([2]; final concentration 2 μM, then dCTP) | Continuous incorporation into 5 consecutive T (luminescence derived from incomplete elongation) ([2]; final concentration 4 μM (substrate amount doubled))
1 | Nc1ncnc2c1c(/C=C/C(=O)NCCc1ccncc1)cn2[C@H]1CC(O)[C@@H](COP(=O)(O)OP(=O)(O)OP(=O)(O)O)O1 (stereo partly shown) [A3d] | excellent exclusivity | can be used for a nucleotide sequence analysis | – | – | – | –
2 | Nc1ncnc2c1ncn2[C@H]1C[C@H](O)[C@@H](COP(O)(=S)OP(=O)(O)OP(=O)(O)O)O1 (stereo partly shown) [dATPαS] | – | can be used for a nucleotide sequence analysis | 36.8 ± 7.8% | 13.6 ± 5.1% | luminescence derived from incomplete elongation was detected even at the third injection | luminescence derived from incomplete elongation was detected at the third injection
